In brackets after ≈: the same amount, converted by molar mass.
Experiments:
[1] = Pharmacokinetic experiments (DMSO formulation); format: in vivo, Swiss mice; conditions: mice, oral, dose 20 mg/kg, vehicle 100% DMSO
Protocol: Pharmacokinetic experiments (DMSO Formulation). Compounds were administered at 20 mg per kg body weight by oral route to Swiss mice (22-24 g) (WIV-ISP breeding). Three mice per time point were anesthetized with ketamine-xyalzine and bled them at 10 min, 20 min, 30 min, 1 h, 2 h, 3 h and 6 h after administration of a single dose of ligands. Blood was collected from the brachial region on lithium heparinated tubes in order to prevent coagulation.
(§1) Plasma samples preparation. Plasma samples were thawed on ice. Aliquots of 50 μL were precipitated with 450 μL of ice cold acetonitrile containing internal standard (1 μM). The samples were vigorously mixed with a Vortex, centrifuged at 10000 rpm, at 4° C. for 10 min and the supernatants were transferred into Matrix tubes for LC-MS-MS analysis. Spiked standard solutions (10, 50, 100, 500, 1000, 5000, 10000 and 50000 nM) were prepared the same way.

in vitro = conditions: CD-1, mouse, microsomes, pH 7.4
[2] = pH 7.4, PBS
[3] = system: M. tuberculosis H37Rv-GFP in Raw264.7 macrophages; test: microbe, parasite or virus in culture; format: cell-based; conditions: Mycobacterium tuberculosis
[4] = Pharmacokinetic experiments (aqueous hydroxypropyl-β-cyclodextrin formulation); format: in vivo, CD1 female mice; conditions: mice, single oral dose 20 mg/kg, vehicle aqueous 100 mM hydroxypropyl-β-cyclodextrin
Protocol: Pharmacokinetic experiments (aqueous hydroxypropyl-β-cyclodextrin Formulation). Compounds solubilized in aqueous hydroxypropyl-β-cyclodextrin solution (100 mM) were administered in single dose (20 mg/kg) to CD1 female mice (25-30 g) (Charles River Laboratories). […] Mice were immediately sacrificed by cervical dislocation. Three mice were dosed per kinetics time point.
as §1

physchem = conditions: pH 7.4, aqueous buffer, kinetic from dmso stock
[5] = RAW264.7, Table 1, […], mean of two experiments

Structure (SMILES) | AUC∞ [1] [ng·h/mL] | microsomal CLint (in vitro) [µL/min/mg] | Solubility [2] [µg/mL] | EC50 ([3]; RAW264.7) [nM] | EC50 [3, 5] [nM] | AUC∞ [4] [ng·h/mL] | solubility at 24 h (physchem) [µg/mL] | microsomal CLint at 1 μM (in vitro) [µL/min/mg]
O=C(CCC(F)(F)F)N1CC[C@@H](c2nc(-c3cccs3)no2)C1 [Compound 2] | 100 | 4 | 80 (≈ 232 µM) | 400 | – | – | – | –
O=C(CCC(F)(F)F)N1CCC(c2nc(-c3cccs3)no2)CC1 [Compound 3, 4-4-4-trifluoro-1-[4-(3-thiophen-2-yl-[1,2,4]oxadiazol-5-yl)-piperidin-1-yl]butan-1-one, reference compound] | – | 213 | 150 (≈ 417 µM) | 100 | 100 | – | – | –
O=C(CCC(F)(F)F)N1CCC(c2nc(-c3nccs3)no2)CC1 [Compound 5, 4,4,4-Trifluoro-1-[4-(3-thiazol-2-yl-1,2,4-oxadiazol-5-yl)-piperidin-1-yl]-butan-1-one] | 73500 | 37 | 300 (≈ 832 µM) | ≤ 500 | 500 | 100500 | – | –
COc1ccc2nc(-c3noc(C4CCN(C(=O)CCC(F)(F)F)CC4)n3)sc2c1 [Compound 7, 4,4,4-Trifluoro-1-{4-[3-(6-methoxy-benzothiazol-2-yl)-1,2,4-oxadiazol-5-yl]-piperidin-1-yl}-butan-1-one] | – | 197 | 6 (≈ 13.6 µM) | – | 200 | – | – | –
O=C(CCC(F)(F)F)N1CCC(c2nc(-c3ccccc3)no2)CC1 [Compound 8, 4,4,4-Trifluoro-1-[4-(3-phenyl-1,2,4-oxadiazol-5-yl)-piperidin-1-yl]-butan-1-one] | – | – | 40 (≈ 113 µM) | ≤ 500 | 500 | – | – | –
O=C(CCC(F)(F)F)N1CCC(c2nc(C3CCCC3)no2)CC1 [Compound 32, 1-[4-(3-Cyclopentyl-1,2,4-oxadiazol-5-yl)-piperidin-1-yl]-4,4,4-trifluoro-butan-1-one] | – | – | – | – | 800 | – | – | –
O=C(CCC(F)(F)F)N1CC[C@@H](c2nc(-c3nccs3)no2)C1 [Compound 41, 4,4,4-trifluoro-1-[(3R)-3-[3-(1,3-thiazol-2-yl)-1,2,4-oxadiazol-5-yl]pyrrolidin-1-yl]butan-1-one] | – | – | – | 6300 | – | – | – | –
O=C(CCCC(F)(F)F)N1CCC(c2nc(-c3nccs3)no2)CC1 [Compound 42, 5,5,5-Trifluoro-1-[4-(3-thiazol-2-yl-1,2,4-oxadiazol-5-yl)-piperidin-1-yl]-pentan-1-one] | – | 15 | 410 (≈ 1100 µM) | 60 | – | 98600 | – | –
O=C(CCCC(F)(F)F)N1CC[C@@H](c2nc(-c3cccs3)no2)C1 [Compound 43, 5,5,5-trifluoro-1-[(3R)-3-[3-(thiophen-2-yl)-1,2,4-oxadiazol-5-yl]pyrrolidin-1-yl]pentan-1-one] | – | – | – | 100 | – | – | 237 (≈ 659 µM) | 297
O=C(CCCC(F)(F)F)N1CCC(c2nc(-c3cccs3)no2)CC1 [Compound 44, 5,5,5-trifluoro-1-{4-[3-(thiophen-2-yl)-1,2,4-oxadiazol-5-yl]piperidin-1-yl}pentan-1-one] | – | – | – | 70 | – | – | – | –
O=C(CCCC(F)(F)F)N1CCC(c2nc(-c3ccccc3)no2)CC1 [Compound 45, 5,5,5-trifluoro-1-[4-(3-phenyl-1,2,4-oxadiazol-5-yl)piperidin-1-yl]pentan-1-one] | – | – | – | 100 | – | – | 80 (≈ 218 µM) | 73
CS(=O)(=O)c1ccc(-c2noc(C3CCN(C(=O)CCCC(F)(F)F)CC3)n2)cc1 [Compound 46, 5,5,5-trifluoro-1-{4-[3-(4-methanesulfonylphenyl)-1,2,4-oxadiazol-5-yl]piperidin-1-yl}pentan-1-one] | – | – | – | 20 | – | – | 80 (≈ 180 µM) | 14

Source: patent US8962658B2, “Fluoralkylcarbonyl-oxadiazoles” (Universite de Droit et de la Sante de Lille 2, priority 2011, dated 2015)
